The values below come from patent publication US20250353891A1 (MEDIMMUNE LIMITED, priority 2022, published 2025).

The structures appear in SMILES notation. Like-named read-outs stand apart in the source and are kept apart here. Starred links: 1 amine or outer side, 2 acyl side, 3 side chain; linkers in the order of their positions; H or OH if unused. Non-standard residues stand in square brackets, D forms with d. Residues, ends and D or L forms follow the SMILES beside them. Groups on a side chain read outwards from the residue. *: point of attachment. C20 diacid = O=C(O)CCCCCCCCCCCCCCCCCCC(=O)*; C18 diacid = O=C(O)CCCCCCCCCCCCCCCCC(=O)*; γGlu = O=C(O)[C@H](CCC(=O)[*:2])N[*:1]; Palmitoyl = CCCCCCCCCCCCCCCC(=O)*; αMeF = C[C@](N)(Cc1ccccc1)C(=O)O; PEG2 = NCCOCCOCCC(=O)O; AEEA = NCCOCCOCC(=O)O; Aib = CC(C)(N)C(=O)O

Test [1] has as its target human GLP-1 receptor (hGLP-1R) (Homo sapiens, UniProt P43220). The test can be described thus: cAMP production (HTRF) in CHO cells expressing hGLP-1R. The format is cell-based. Further details: expressed in transfected cells. To be noted: for EC50: cAMP in CHO hGLP-1R cells, geometric mean, read-out: hGLP-1R EC50; for % Relative Potency Ratio: % GLP-1R activity relative to GLP-1 / % GlucR activity relative to glucagon. The method in brief:
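Cells were resuspended in assay buffer at batch-optimized density, typically 1×10^5 cells/mL for hGLP-1R and 2×10^5 cells/mL for hGCGR. After 30 min incubation at room temperature with compound, cAMP was measured by two-step HTRF. EC50 values came from 4-parameter logistic fits of % Delta F.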

Test [2] concerns the target human glucagon receptor (hGCGR) (Homo sapiens, UniProt P47871). The experiment in a line: cAMP production (HTRF) in CHO cells expressing hGCGR. The test is classed as cell-based. More on the design: expressed in transfected cells. To be noted: cAMP in CHO hGCGR cells, geometric mean, read-out: hGluc-R EC50. As to the method:
Cells were re-suspended in assay buffer at a batch-dependent optimized concentration (typically hGLP-1R cells at 1×10^5 cells/mL, hGCGR cells at 2×10^5 cells/mL).
Cells were added to the assay plate using a multidrop dispenser and incubated at room temperature for 30 minutes before measuring the cAMP level using a cAMP dynamic 2 homogeneous time resolved Fluorescence (HTRF) kit (Cisbio Bioassays #62AM4PEJ) following the two-step protocol as per manufacturer's recommendations. In brief, anti-cAMP cryptate (donor fluorophore) and cAMP-d2 (acceptor fluorophore) were made up separately by diluting each 1 in 20 in conjugate and lysis buffer provided in the kit. Anti-CAMP cryptate was added to all wells of the assay plate, followed by cAMP-d2 added to all wells except non-specific binding (NSB) wells (to which conjugate and lysis buffer was added).
Data was transformed to % Delta F as described in the manufacturer's guidelines and analyzed by 4-parameter logistic fit to determine EC50 values.

The mark [3] stands for this setting: Table 6, peptides modified at position 17.
Setting [4] is: Table 7, peptides modified at position 20.

Sequence of human glucagon receptor (hGCGR) (P47871 26-477): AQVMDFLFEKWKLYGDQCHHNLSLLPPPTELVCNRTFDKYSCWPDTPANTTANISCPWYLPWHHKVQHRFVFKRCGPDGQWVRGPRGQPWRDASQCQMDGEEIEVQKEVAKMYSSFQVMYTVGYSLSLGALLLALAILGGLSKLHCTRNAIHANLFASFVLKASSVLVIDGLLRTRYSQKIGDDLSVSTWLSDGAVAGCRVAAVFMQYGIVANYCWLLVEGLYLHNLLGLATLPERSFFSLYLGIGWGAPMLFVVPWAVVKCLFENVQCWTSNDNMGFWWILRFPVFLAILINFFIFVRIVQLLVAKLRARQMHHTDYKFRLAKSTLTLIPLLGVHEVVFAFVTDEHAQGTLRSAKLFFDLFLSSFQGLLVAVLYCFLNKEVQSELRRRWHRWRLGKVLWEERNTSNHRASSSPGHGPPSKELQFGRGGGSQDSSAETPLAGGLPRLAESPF
Sequence of human GLP-1 receptor (hGLP-1R) (P43220 24-463): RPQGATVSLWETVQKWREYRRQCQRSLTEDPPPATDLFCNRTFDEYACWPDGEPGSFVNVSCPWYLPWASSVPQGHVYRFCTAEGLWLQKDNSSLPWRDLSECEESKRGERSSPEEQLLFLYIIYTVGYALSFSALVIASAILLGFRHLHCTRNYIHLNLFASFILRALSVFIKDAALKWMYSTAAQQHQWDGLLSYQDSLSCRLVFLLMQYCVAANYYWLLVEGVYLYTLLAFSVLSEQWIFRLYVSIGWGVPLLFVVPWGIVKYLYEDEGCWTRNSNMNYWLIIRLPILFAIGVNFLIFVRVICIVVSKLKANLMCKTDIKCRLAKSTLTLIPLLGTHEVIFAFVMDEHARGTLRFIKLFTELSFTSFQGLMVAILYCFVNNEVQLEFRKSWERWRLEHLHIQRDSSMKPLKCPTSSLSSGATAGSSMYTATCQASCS

As to `CC(C)C[C@H](NC(=O)[C@H](Cc1c[nH]c2ccccc12)NC(=O)[C@H](CCC(N)=O)NC(=O)[C@@H](NC(=O)[C@H](Cc1ccccc1)NC(=O)[C@H](CC(=O)O)NC(=O)[C@H](CCC(=O)O)NC(=O)[C@H](C)NC(=O)[C@H](CCCNC(=N)N)NC(=O)[C@H](CCCCNC(=O)COCCOCCNC(=O)COCCOCCNC(=O)CC[C@H](NC(=O)CCCCCCCCCCCCCCCCC(=O)O)C(=O)O)NC(=O)[C@H](CO)NC(=O)[C@H](CC(=O)O)NC(=O)[C@H](CC(C)C)NC(=O)[C@](C)(Cc1ccccc1)NC(=O)[C@H](CCCCN)NC(=O)[C@H](CO)NC(=O)[C@@H](NC(=O)[C@H](CC(=O)O)NC(=O)[C@H](CO)NC(=O)[C@@H](NC(=O)[C@H](Cc1ccccc1)NC(=O)[C@@H](NC(=O)CNC(=O)[C@H](CCC(N)=O)NC(=O)C(C)(C)NC(=O)[C@@H](N)Cc1c[nH]cn1)[C@@H](C)O)[C@@H](C)O)C(C)C)C(C)C)C(=O)N[C@@H](CC(C)C)C(=O)NC(C)(C)C(=O)N[C@H](C(=O)O)[C@@H](C)O` [Peptide 37] (H-H[Aib]QGTFTSDVSK[αMeF]LDSK([AEEA-AEEA-γGlu-C18 diacid])RAEDFVQWLL[Aib]T-OH), the EC50 – broadly, the concentration giving half of the maximal effect – in test [1] (setting [3]) came to 0.0686 nM; in test [2] (setting [3]) it was 2.75 nM. Moreover, the “% Relative Potency Ratio” value in test [1] (Table 6) was found to be 79.2.
Regarding `CC[C@H](C)[C@H](NC(=O)[C@H](Cc1c[nH]c2ccccc12)NC(=O)[C@H](CCC(N)=O)NC(=O)[C@@H](NC(=O)[C@H](Cc1ccccc1)NC(=O)[C@H](CC(=O)O)NC(=O)[C@H](CCCCNC(=O)COCCOCCNC(=O)COCCOCCNC(=O)CC[C@H](NC(=O)CCCCCCCCCCCCCCCCC(=O)O)C(=O)O)NC(=O)[C@H](C)NC(=O)[C@H](C)NC(=O)[C@H](CCCNC(=N)N)NC(=O)[C@@H](NC(=O)[C@H](CC(=O)O)NC(=O)[C@H](CC(C)C)NC(=O)[C@](C)(Cc1ccccc1)NC(=O)[C@H](CCCCN)NC(=O)[C@H](CO)NC(=O)[C@@H](NC(=O)[C@H](CC(=O)O)NC(=O)[C@H](CO)NC(=O)[C@@H](NC(=O)[C@H](Cc1ccccc1)NC(=O)[C@@H](NC(=O)CNC(=O)[C@H](CCC(N)=O)NC(=O)C(C)(C)NC(=O)[C@@H](N)Cc1c[nH]cn1)[C@@H](C)O)[C@@H](C)O)C(C)C)[C@@H](C)O)C(C)C)C(=O)N[C@@H](C)C(=O)N[C@@H](CC(N)=O)C(=O)N[C@H](C(N)=O)[C@@H](C)O` [Peptide 308] (H-H[Aib]QGTFTSDVSK[αMeF]LDTRAAK([AEEA-AEEA-γGlu-C18 diacid])DFVQWIANT-NH2; N-terminus assumed), the EC50 came out at 0.0275 nM in test [1] (setting [4]) and 1.72 nM in test [2] (setting [4]). The “% Relative Potency Ratio” value in test [1] (Table 7) turned out to be 123.4.
As for `CCCCCCCCCCCCCCCC(=O)N[C@@H](CCC(=O)N[C@@H](CCC(=O)NCCOCCOCCC(=O)NCCOCCOCCC(=O)NCCCC[C@H](NC(=O)[C@H](CO)NC(=O)[C@H](CC(=O)O)NC(=O)[C@H](CC(C)C)NC(=O)C(C)(C)NC(=O)[C@H](CCCCN)NC(=O)[C@H](CO)NC(=O)[C@@H](NC(=O)[C@H](CC(=O)O)NC(=O)[C@H](CO)NC(=O)[C@@H](NC(=O)[C@](C)(Cc1ccccc1)NC(=O)[C@H](CO)NC(=O)CNC(=O)[C@H](CCC(N)=O)NC(=O)[C@H](CO)NC(=O)[C@@H](N)Cc1c[nH]cn1)[C@@H](C)O)C(C)C)C(=O)N[C@@H](C)C(=O)N[C@@H](C)C(=O)N[C@@H](CCC(N)=O)C(=O)N[C@@H](CC(=O)O)C(=O)N[C@@](C)(Cc1ccccc1)C(=O)N[C@H](C(=O)N[C@@H](CCC(N)=O)C(=O)N[C@@H](Cc1c[nH]cn1)C(=O)N[C@H](C(=O)N[C@@H](C)C(=O)N[C@@H](CC(N)=O)C(N)=O)[C@@H](C)CC)C(C)C)C(=O)O)C(=O)O` [Peptide 106] (H-HSQGS[αMeF]TSDVSK[Aib]LDSK([PEG2-PEG2-γGlu-γGlu-Palmitoyl])AAQD[αMeF]VQHIAN-NH2), the concentration for a half-maximal effect (EC50) turned out to be 0.00682 nM in test [1] (setting [3]) and 0.0368 nM in test [2] (setting [3]). The “% Relative Potency Ratio” value in test [1] (Table 6) is reported as 10.7.
`CC(C)C[C@H](NC(=O)[C@H](Cc1c[nH]c2ccccc12)NC(=O)[C@H](CCCNC(=N)N)NC(=O)[C@@H](NC(=O)[C@H](Cc1ccccc1)NC(=O)[C@H](CC(=O)O)NC(=O)[C@H](CCC(N)=O)NC(=O)[C@H](C)NC(=O)[C@H](CCCNC(=N)N)NC(=O)[C@H](CCCCNC(=O)COCCOCCNC(=O)COCCOCCNC(=O)CC[C@H](NC(=O)CCCCCCCCCCCCCCCCC(=O)O)C(=O)O)NC(=O)[C@H](CO)NC(=O)[C@H](CC(=O)O)NC(=O)[C@H](CC(C)C)NC(=O)[C@](C)(Cc1ccccc1)NC(=O)[C@H](CCCCN)NC(=O)[C@H](CO)NC(=O)[C@@H](NC(=O)[C@H](CC(=O)O)NC(=O)[C@H](CO)NC(=O)[C@@H](NC(=O)[C@H](Cc1ccccc1)NC(=O)[C@@H](NC(=O)CNC(=O)[C@H](CCC(N)=O)NC(=O)C(C)(C)NC(=O)[C@@H](N)Cc1c[nH]cn1)[C@@H](C)O)[C@@H](C)O)C(C)C)C(C)C)C(=O)N[C@@H](C)C(=O)NC(C)(C)C(=O)N[C@H](C(=O)N[C@@H](CCC(=O)O)C(=O)O)[C@@H](C)O` [Peptide 175] (H-H[Aib]QGTFTSDVSK[αMeF]LDSK([AEEA-AEEA-γGlu-C18 diacid])RAQDFVRWLA[Aib]TE-OH): the EC50 in test [1] (setting [3]) turned out to be 0.0684 nM; in test [2] (setting [3]), 2.02 nM. Moreover, the “% Relative Potency Ratio” value in test [1] (Table 6) is 58.4.
For `CC(C)C[C@H](NC(=O)[C@H](Cc1c[nH]c2ccccc12)NC(=O)[C@H](CCC(N)=O)NC(=O)[C@@H](NC(=O)[C@H](Cc1ccccc1)NC(=O)[C@H](CC(=O)O)NC(=O)[C@H](CCCNC(=N)N)NC(=O)[C@H](C)NC(=O)[C@H](CCCNC(=N)N)NC(=O)[C@H](CCCCNC(=O)COCCOCCNC(=O)COCCOCCNC(=O)CC[C@H](NC(=O)CCCCCCCCCCCCCCCCCCC(=O)O)C(=O)O)NC(=O)[C@@H](NC(=O)[C@H](CC(=O)O)NC(=O)[C@H](CC(C)C)NC(=O)[C@](C)(Cc1ccccc1)NC(=O)[C@H](CCCCN)NC(=O)[C@H](CO)NC(=O)[C@@H](NC(=O)[C@H](CC(=O)O)NC(=O)[C@H](CO)NC(=O)[C@@H](NC(=O)[C@H](Cc1ccccc1)NC(=O)[C@@H](NC(=O)CNC(=O)[C@H](CCC(N)=O)NC(=O)C(C)(C)NC(=O)[C@@H](N)Cc1c[nH]cn1)[C@@H](C)O)[C@@H](C)O)C(C)C)[C@@H](C)O)C(C)C)C(=O)N[C@@H](CC(C)C)C(=O)NC(C)(C)C(=O)N[C@H](C(=O)N[C@@H](CCC(=O)O)C(N)=O)[C@@H](C)O` [Peptide 490] (H-H[Aib]QGTFTSDVSK[αMeF]LDTK([AEEA-AEEA-γGlu-C20 diacid])RARDFVQWLL[Aib]TE-NH2; N-terminus assumed) the same measures were 0.069 nM, 0.396 nM and 11.4.
`CC[C@H](C)[C@H](NC(=O)[C@H](Cc1c[nH]c2ccccc12)NC(=O)[C@H](CCCNC(=N)N)NC(=O)[C@@H](NC(=O)[C@H](Cc1ccccc1)NC(=O)[C@H](CC(=O)O)NC(=O)[C@H](CCC(N)=O)NC(=O)[C@H](C)NC(=O)[C@H](CCCNC(=N)N)NC(=O)[C@H](CCCCNC(=O)COCCOCCNC(=O)COCCOCCNC(=O)CC[C@H](NC(=O)CCCCCCCCCCCCCCCCC(=O)O)C(=O)O)NC(=O)[C@H](CO)NC(=O)[C@H](CC(=O)O)NC(=O)[C@H](CC(C)C)NC(=O)[C@](C)(Cc1ccccc1)NC(=O)[C@H](CCCCN)NC(=O)[C@H](CO)NC(=O)[C@@H](NC(=O)[C@H](CC(=O)O)NC(=O)[C@H](CO)NC(=O)[C@@H](NC(=O)[C@H](Cc1ccccc1)NC(=O)[C@@H](NC(=O)CNC(=O)[C@H](CCC(N)=O)NC(=O)C(C)(C)NC(=O)[C@@H](N)Cc1c[nH]cn1)[C@@H](C)O)[C@@H](C)O)C(C)C)C(C)C)C(=O)N[C@@H](C)C(=O)NC(C)(C)C(=O)N[C@H](C(=O)N[C@@H](CCC(=O)O)C(=O)O)[C@@H](C)O` [Peptide 162] (H-H[Aib]QGTFTSDVSK[αMeF]LDSK([AEEA-AEEA-γGlu-C18 diacid])RAQDFVRWIA[Aib]TE-OH; N-terminus assumed): the concentration for a half-maximal effect (EC50) in test [1] (setting [3]) turned out to be 0.0596 nM; in test [2] (setting [3]), 1.03 nM. In test [1] (Table 6), the “% Relative Potency Ratio” value is reported as 34.1.
